Where only a bound is given, the exact number is not on record here.

Chain of SphK1 (Q9NYA1 whole entry): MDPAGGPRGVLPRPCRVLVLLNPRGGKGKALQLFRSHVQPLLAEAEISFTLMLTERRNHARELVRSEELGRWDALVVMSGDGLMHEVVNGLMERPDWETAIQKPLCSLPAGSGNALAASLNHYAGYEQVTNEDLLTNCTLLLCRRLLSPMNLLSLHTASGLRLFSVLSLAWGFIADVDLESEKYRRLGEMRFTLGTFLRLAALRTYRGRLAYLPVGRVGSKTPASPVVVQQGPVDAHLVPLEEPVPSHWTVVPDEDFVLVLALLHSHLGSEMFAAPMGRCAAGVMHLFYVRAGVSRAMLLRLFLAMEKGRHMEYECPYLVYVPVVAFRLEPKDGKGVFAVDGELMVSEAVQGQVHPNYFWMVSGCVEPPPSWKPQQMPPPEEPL

This experiment concerns the target SphK1 (Homo sapiens, UniProt Q9NYA1). The experiment is described as follows: SphK1 384-well flashplate kinase assay. The format is biochemical. The note with it: enzyme assay. As for the experimental part:
The kinase assay is carried out as a 384-well flashplate assay.
5 nM modified SphK1, 800 nM omega-biotinyl-D-erythro-sphingosine and 1 μM ATP (with 0.3 μCi of ^33P-ATP/well) are incubated in a total volume of 50 μl (25 mM HEPES, 5 mM MgCl2, 1 mM dithiothreitol, 0.01% of Brij35, 0.1% of BSA (fatty acid-free), pH 7.4) without or with test substance (5-10 concentrations) at 30° C. for 120 min. The reaction is terminated using 25 μl of 200 mM EDTA solution, filtered off with suction at room temperature after 30 min, and the cavities are washed 3 times with 100 μl of 0.9% NaCl solution. The non-specific proportion of the kinase reaction (blank) is determined using 0.5 mM NaCl. Radioactivity is measured in topcount. IC50 values are calculated using RS1.
`CC(CN(C)C)N1CCC(c2nc(-c3ccc4c(c3)C(C)(C)CCC4(C)C)cs2)CC1` (stereo not drawn) [Compound A29] came in with a concentration for half-maximal inhibition (IC50) of 1 to 10 µM. The result for `CC1(C)CCC(C)(C)c2cc(-c3csc(C4CCN(CCCCN5CCOCC5)CC4)n3)ccc21` [Compound A30] reads 0.01 to 1 µM; that for `CC1(C)CCC(C)(C)c2cc(-c3csc(C4CCN(CC(=O)N5CCOCC5)CC4)n3)ccc21` [Compound A31], 1 to 10 µM. `COCCN1CCC(c2nc(-c3ccc4c(c3)C(C)(C)CCC4(C)C)cs2)CC1` [Compound A32] yielded an IC50 of 0.01 to 1 µM. Turning to `CN1CCC(c2nc(-c3ccc4c(c3)C(C)(C)CCC4(C)C)cs2)CC1` [Compound A33], the IC50 was 0.01 to 1 µM. `CCN1CCC(c2nc(-c3ccc4c(c3)C(C)(C)CCC4(C)C)cs2)CC1` [Compound A34] gave a concentration for half-maximal inhibition (IC50) of 0.01 to 1 µM. `COc1ccccc1N1CCN(CCN2CCC(c3nc(-c4ccc5c(c4)C(C)(C)CCC5(C)C)cs3)CC2)CC1` [Compound A35] had an IC50 greater than 10 µM. For `CCN(CC)CCCN1CCC(c2nc(-c3ccc4c(c3)C(C)(C)CCC4(C)C)cs2)CC1` [Compound A36] the value was 1 to 10 µM. `CC(CO)N1CCC(c2nc(-c3ccc4c(c3)C(C)(C)CCC4(C)C)cs2)CC1` (stereo not drawn) [Compound A38] gave a half-inhibitory concentration (IC50) of 0.01 to 1 µM. Molecule `CC(CCO)N1CCC(c2nc(-c3ccc4c(c3)C(C)(C)CCC4(C)C)cs2)CC1` (stereo not drawn) [Compound A40] had an IC50 of 0.01 to 1 µM. Turning to `CN(C)CCCNC(=O)N1CCC(c2nc(-c3ccc4c(c3)C(C)(C)CCC4(C)C)cs2)CC1` [Compound A42], the IC50 was 1 to 10 µM. In turn, `CC1(C)CCC(C)(C)c2cc(-c3csc(C4CCN(C(=O)NCCc5ccccn5)CC4)n3)ccc21` [Compound A43] had an IC50 of 1 to 10 µM. For `CC1(C)CCC(C)(C)c2cc(-c3csc(C4CCN(C(=O)NCC(N)=O)CC4)n3)ccc21` [Compound A44] the value was greater than 10 µM; for `CCN(CC)CCNC(=O)N1CCC(c2nc(-c3ccc4c(c3)C(C)(C)CCC4(C)C)cs2)CC1` [Compound A45], greater than 10 µM; for `COCCCOC(=O)N1CCC(c2nc(-c3ccc4c(c3)C(C)(C)CCC4(C)C)cs2)CC1` [Compound A46, 3-methoxypropyl 4-[4-(5,5,8,8-tetramethyl-5,6,7,8-tetrahydronaphthalen-2-yl)thiazol-2-yl]piperidine-1-carboxylate], 1 to 10 µM. For `CN(C)CCOCCOC(=O)N1CCC(c2nc(-c3ccc4c(c3)C(C)(C)CCC4(C)C)cs2)CC1` [Compound A47] the value was 1 to 10 µM; for `CC1(C)CCC(C)(C)c2cc(-c3csc(C4CCN(C(=O)OCCN5CCCC5)CC4)n3)ccc21` [Compound A49], greater than 10 µM; for `CN1CCCC(COC(=O)N2CCC(c3nc(-c4ccc5c(c4)C(C)(C)CCC5(C)C)cs3)CC2)C1` (stereo not drawn) [Compound A50], greater than 10 µM. The result for `CC1(C)CCC(C)(C)c2cc(-c3csc(C4CCN(C(=O)Cc5ccncc5)CC4)n3)ccc21` [Compound A51, 2-pyridin-4-yl-1-{4-[4-(5,5,8,8-tetramethyl-5,6,7,8-tetrahydronaphthalen-2-yl)thiazol-2-yl]piperidin-1-yl}ethanone] reads 1 to 10 µM; that for `CC1(C)CCC(C)(C)c2cc(-c3csc(C4CCN(C(=O)c5ccncc5)CC4)n3)ccc21` [Compound A52], 1 to 10 µM; that for `CN(C)CC(=O)N1CCC(c2nc(-c3ccc4c(c3)C(C)(C)CCC4(C)C)cs2)CC1` [Compound A55], greater than 10 µM. The molecule `CC(CO)(CO)C(=O)N1CCC(c2nc(-c3ccc4c(c3)C(C)(C)CCC4(C)C)cs2)CC1` [Compound A57] yielded a concentration for half-maximal inhibition (IC50) of 1 to 10 µM.

Molecule `CC1(C)CCC(C)(C)c2cc(-c3csc(C4CCN(C(=O)[C@@H](N)Cc5cnc[nH]5)CC4)n3)ccc21` [Compound A63, (S)-2-amino-3-(3H-imidazol-4-yl)-1-{4-[4-(5,5,8,8-tetramethyl-5,6,7,8-tetrahydronaphthalen-2-yl)thiazol-2-yl]piperidin-1-yl}-propan-1-one] displayed a half-maximal inhibitory concentration (IC50) of 1 to 10 µM. Take `CC1(C)CCC(C)(C)c2cc(-c3csc(C4CCN(C(=O)[C@@H](N)CO)CC4)n3)ccc21` [Compound A64]: the 50% inhibitory concentration (IC50) was in the range of 1 to 10 µM. For `CC1(C)CCC(C)(C)c2cc(-c3csc(C4CCN(C(=O)C5CNCCO5)CC4)n3)ccc21` (stereo not drawn) [Compound A65] the value was 0.01 to 1 µM; for `CC1(C)CCC(C)(C)c2cc(-c3csc(C4CCN(C(=O)[C@H](N)CCCCO)CC4)n3)ccc21` [Compound A66], 0.01 to 1 µM; for `CC1(C)CCC(C)(C)c2cc(-c3csc(C4CCN(C(=O)CCN5CCNCC5)CC4)n3)ccc21` [Compound A67], greater than 10 µM. Regarding `CC1(C)CCC(C)(C)c2cc(-c3csc(C4CCN(C(=O)[C@H]5C[C@H](O)CN5)CC4)n3)ccc21` [Compound A68], the half-inhibitory concentration (IC50) was in the range of 1 to 10 µM. `CC1(C)CCC(C)(C)c2cc(-c3csc(C4CCN(C(=O)[C@@H](N)CC(N)=O)CC4)n3)ccc21` [Compound A69] showed an IC50 of 1 to 10 µM. `CC1(C)CCC(C)(C)c2cc(-c3csc(C4CCN(C(=O)[C@H](N)CO)CC4)n3)ccc21` [Compound A70] displayed a 50% inhibitory concentration (IC50) of 1 to 10 µM. Molecule `Cn1cnc(CN2CCC(c3nc(-c4ccc5c(c4)C(C)(C)CCC5(C)C)cs3)CC2)c1` [Compound A71] showed an IC50 of 1 to 10 µM. The result for `Cc1[nH]cnc1CN1CCC(c2nc(-c3ccc4c(c3)C(C)(C)CCC4(C)C)cs2)CC1` [Compound A72] reads 0.01 to 1 µM; that for `Cn1ccnc1CN1CCC(c2nc(-c3ccc4c(c3)C(C)(C)CCC4(C)C)cs2)CC1` [Compound A73], 0.01 to 1 µM; that for `CC1(C)CCC(C)(C)c2cc(-c3csc(C4CCN(Cc5ccncc5)CC4)n3)ccc21` [Compound A74], 1 to 10 µM. The result for `CC1(C)CCC(C)(C)c2cc(-c3csc(C4CCN(Cc5c[nH]cn5)CC4)n3)ccc21` [Compound A75] reads 0.01 to 1 µM. For `CN(C)CC(C)(C)CN1CCC(c2nc(-c3ccc4c(c3)C(C)(C)CCC4(C)C)cs2)CC1` [Compound A76] the value was greater than 10 µM.

`CC1(C)CCC(C)(C)c2cc(-c3csc(C4CCN(Cc5ccccn5)CC4)n3)ccc21` [Compound A77]: the IC50 lay in the range of 1 to 10 µM.

The molecule `COCC(C)NC(=O)N1CCC(c2nc(-c3ccc4c(c3)C(C)(C)CCC4(C)C)cs2)CC1` (stereo not drawn) [Compound A78] yielded a half-inhibitory concentration (IC50) of 1 to 10 µM. Molecule `COCCCNC(=O)N1CCC(c2nc(-c3ccc4c(c3)C(C)(C)CCC4(C)C)cs2)CC1` [Compound A79] had a half-maximal inhibitory concentration (IC50) of 1 to 10 µM. For `CC(=O)N1CCC(c2nc(-c3ccc4c(c3)C(C)(C)CCC4(C)C)cs2)CC1` [Compound A80] the value was 1 to 10 µM. For `CC1(C)CCC(C)(C)c2cc(-c3csc(C4CCN(CCN)CC4)n3)ccc21` [Compound A81] the value was 0.01 to 1 µM; for `Cc1oncc1S(=O)(=O)N1CCC(c2nc(-c3ccc4c(c3)C(C)(C)CCC4(C)C)cs2)CC1` [Compound A82], 1 to 10 µM.

Molecule `CC1(C)CCC(C)(C)c2cc(-c3csc(C4CCN(S(C)(=O)=O)CC4)n3)ccc21` [Compound A83] registered a half-maximal inhibitory concentration (IC50) greater than 10 µM. The molecule `CC1(C)CCC(C)(C)c2cc(-c3csc(C4CCN(CCCN5CCOCC5)CC4)n3)ccc21` [Compound B1] yielded an IC50 of 1 to 10 µM. For `CC1(C)CCC(C)(C)c2cc(-c3csc(C4CCN(CCCCO)CC4)n3)ccc21` [Compound B2] the value was 0.01 to 1 µM; for `CC1(C)CCCc2cc(-c3csc(C4CCN(CCCCO)CC4)n3)ccc21` [Compound B3], 0.01 to 1 µM. The result for `CC1(C)CC(C)(C)c2cc(-c3csc(C4CCN(CCCO)CC4)n3)ccc21` [Compound B4] reads 0.01 to 1 µM; that for `CC1(C)CC(C)(C)c2cc(-c3csc(C4CCN(CCCCCO)CC4)n3)ccc21` [Compound B5], 0.01 to 1 µM. For `CC1(C)CC(C)(C)c2cc(-c3csc(C4CCN(CCCCO)CC4)n3)ccc21` [Compound B6] the value was 0.01 to 1 µM; for `CC1(C)CCC(C)(C)c2cc(-c3csc(C4CCN(Cc5cc[nH]n5)CC4)n3)ccc21` [Compound B7], 0.01 to 1 µM; for `Cn1cccc1CN1CCC(c2nc(-c3ccc4c(c3)C(C)(C)CCC4(C)C)cs2)CC1` [Compound B8], 1 to 10 µM. Consider `CC1(C)CCC(C)(C)c2cc(-c3csc(C4CCN(Cc5ccc(CO)o5)CC4)n3)ccc21` [Compound B9], for which the IC50 is 1 to 10 µM. In turn, `CC1(C)CCC(C)(C)c2cc(-c3csc(C4CCN(CCCCCO)CC4)n3)ccc21` [Compound B10] came in with an IC50 of 0.01 to 1 µM. In the case of `CCn1nccc1CN1CCC(c2nc(-c3ccc4c(c3)C(C)(C)CCC4(C)C)cs2)CC1` [Compound B11], the IC50 was in the range of 1 to 10 µM. In the case of `Cc1noc(C)c1CN1CCC(c2nc(-c3ccc4c(c3)C(C)(C)CCC4(C)C)cs2)CC1` [Compound B12], the IC50 lay in the range of 1 to 10 µM.

In turn, `CC1(C)CCC(C)(C)c2cc(-c3csc(C4CCN(Cc5ncc[nH]5)CC4)n3)ccc21` [Compound B13] displayed an IC50 of 0.01 to 1 µM. `CN(C)n1cccc1CN1CCC(c2nc(-c3ccc4c(c3)C(C)(C)CCC4(C)C)cs2)CC1` [Compound B14]: the half-inhibitory concentration (IC50) is 1 to 10 µM. For `CC1(C)CCC(C)(C)c2cc(-c3csc(C4CCN(C(=O)OCC5CNCCO5)CC4)n3)ccc21` (stereo not drawn) [Compound B16] the value was 1 to 10 µM. For `CC1(O)CCCc2cc(-c3csc(C4CCNCC4)n3)ccc21` (stereo not drawn) [Compound C2], the IC50 lay within 0.01 to 1 µM. For `CC1(C)CCCc2ccc(-c3csc(C4CCNCC4)n3)cc21` [Compound C3], the concentration for half-maximal inhibition (IC50) lay within 0.01 to 1 µM.

In turn, `Cc1cc2c(cc1-c1csc(C3CCNCC3)n1)C(C)(C)CCC2(C)C` [Compound C5] registered a half-maximal inhibitory concentration (IC50) of 1 to 10 µM.

`c1cc2c(cc1-c1csc(C3CCNCC3)n1)CCCC2` [Compound C6] gave an IC50 of 0.01 to 1 µM. Take `CC1(C)CC(C)(C)c2cc(-c3csc(C4CCNCC4)n3)ccc21` [Compound C7]: the IC50 is 0.01 to 1 µM.

For the origin of these results see patent publication US8436186B2, “Thiazolyl piperidine derivatives” (Merck Patent Gesellschaft mit beschrankter Haftung, priority 2008, dated 2013).
